Data reported in US12441762B2, “Hepatitis c virus NS3/4A protease inhibitors” (priority 2019, dated 2025).

Tests used:
Assay in all cases: biochemical
[1] = target: HCV NS3/4A protease GT3 (Hepatitis C virus genotype 3a, UniProt Q81495)
[2] = target: T1, wild-type HCV NS3/4A protease (GT1a) (Hepatitis C virus genotype 1a, UniProt P27958, C1185S); format: biochemical
T1 construct: His-tag (cleaved yes); made in house; host or cells: Escherichia coli BL21(DE3), PET28a vector
Outline: (§1)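 Inhibitors pre-incubated 1 h at room temperature with 2 nM NS3/4A protease (GT1a C159S or D168A) in 50 mM Tris, 5% glycerol, 10 mM DTT, 0.6 mM LDAO, 4% DMSO, pH 7.5. Km from global Michaelis-Menten fit of inner-filter-corrected initial velocities; three independent data sets per inhibitor and construct.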

[3] = target: T2, HCV NS3/4A protease D168A variant (Hepatitis C virus genotype 1a, UniProt P27958, C1185S/D1194A); format: biochemical
T2 construct: His-tag (cleaved yes); made in house; host or cells: Escherichia coli BL21(DE3), PET28a vector
Outline: as §1

T2 sequence (P27958 1027-1208 C1185S/D1194A): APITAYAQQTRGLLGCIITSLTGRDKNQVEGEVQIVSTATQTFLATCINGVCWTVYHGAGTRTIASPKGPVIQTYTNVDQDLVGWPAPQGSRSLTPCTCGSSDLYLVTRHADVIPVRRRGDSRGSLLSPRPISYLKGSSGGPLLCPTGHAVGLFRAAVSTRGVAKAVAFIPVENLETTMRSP
T1 sequence (P27958 1027-1208 C1185S): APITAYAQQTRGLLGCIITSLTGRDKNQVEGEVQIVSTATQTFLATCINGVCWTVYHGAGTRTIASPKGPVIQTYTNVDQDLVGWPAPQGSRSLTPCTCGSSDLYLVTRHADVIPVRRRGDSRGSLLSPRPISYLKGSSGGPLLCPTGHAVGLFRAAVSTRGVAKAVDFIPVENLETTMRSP
Sequence of HCV NS3/4A protease GT3 (Q81495 1033-1214): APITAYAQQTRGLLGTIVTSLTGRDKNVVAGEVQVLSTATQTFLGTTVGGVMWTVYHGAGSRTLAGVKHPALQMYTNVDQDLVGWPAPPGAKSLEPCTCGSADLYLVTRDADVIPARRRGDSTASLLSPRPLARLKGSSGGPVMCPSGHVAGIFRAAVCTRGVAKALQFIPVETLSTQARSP
Sequence of HCV NS3/4A protease GT3 (Q81495 1664-1717): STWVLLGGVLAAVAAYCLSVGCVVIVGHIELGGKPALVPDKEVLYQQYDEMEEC

| Compound | Ki [1] | Ki [2] | Ki [3] |
| --- | --- | --- | --- |
| COc1ccc2nc(C(F)(F)F)c(O[C@@H]3C[C@H]4C(=O)N[C@]5(C(=O)NS(=O)(=O)C6(C)CC6)C[C@H]5/C=C\CCCCC[C@H](NC(=O)O[C@@H](C)C(C)C)C(=O)N4C3)nc2c1 [NR01-101, (S)-3-Methylbutan-2-yl ((2R,6S,13aS,14aR,16aS,Z)-2-((7-methoxy-3-(trifluoromethyl)quinoxalin-2-yl)oxy)-14a-(((1-methylcyclopropyl)sulfonyl)carbamoyl)-5,16-dioxo-1,2,3,5,6,7,8,9,10,11,13a,14,14a,15,16,16a-hexadecahydrocyclopropa [e]pyrrolo[1,2-a][1,4]diazacyclopentadecin-6-yl)carbamate] | 0.447 ± 0.025 µM | 0.0061 ± 0.00057 µM | 0.0262 ± 0.0023 µM |
| COc1ccc2nc(C)c(O[C@@H]3C[C@H]4C(=O)N[C@]5(C(=O)NS(=O)(=O)C6(C)CC6)C[C@H]5/C=C\CCCCC[C@H](NC(=O)O[C@H](C)C(F)(F)F)C(=O)N4C3)nc2c1 [NR01-145, (R)-1,1,1-Trifluoropropan-2-yl ((2R,6S,13aS,14aR,16aS,Z)-2-((7-methoxy-3-methylquinoxalin-2-yl)oxy)-14a-(((1-methylcyclopropyl)sulfonyl)carbamoyl)-5,16-dioxo-1,2,3,5,6,7,8,9,10,11,13a,14,14a,15,16,16a-hexadecahydrocyclopropa[e]pyrrolo[1,2-a][1,4]diazacyclopentadecin-6-yl)carbamate] | 0.122 ± 0.011 µM | 0.0011 ± 0.0001 µM | 0.008 ± 0.001 µM |
| COc1ccc2nc(C)c(O[C@@H]3C[C@H]4C(=O)N[C@]5(C(=O)NS(=O)(=O)C6(C)CC6)C[C@H]5/C=C\CCCCC[C@H](NC(=O)O[C@@H]5CCC[C@H]5F)C(=O)N4C3)nc2c1 [NR02-08, (1R,2R)-2-Fluorocyclopentyl ((2R,6S,13aS,14aR,16aS,Z)-2-((7-methoxy-3-methylquinoxalin-2-yl)oxy)-14a-(((1-methylcyclopropyl)sulfonyl)carbamoyl)-5,16-dioxo-1,2,3,5,6,7,8,9,10,11,13a,14,14a,15,16,16a-hexadecahydrocyclopropa[e]pyrrolo [1,2-a][1,4]diazacyclopentadecin-6-yl)carbamate] | 0.216 ± 0.032 µM | 0.0023 ± 0.0002 µM | 0.016 ± 0.001 µM |
| COc1ccc2nc(C(F)(F)F)c(O[C@@H]3C[C@H]4C(=O)N[C@]5(C(=O)NS(=O)(=O)C6(C)CC6)C[C@H]5/C=C\CCCCC[C@H](NC(=O)OC5(C)CCCC5)C(=O)N4C3)nc2c1 [NR02-15, 1-Methylcyclopentyl ((2R,6S,13aS,14aR,16aS,Z)-2-((7-methoxy-3-(trifluoromethyl)quinoxalin-2-yl)oxy)-14a-(((1-methylcyclopropyl)sulfonyl)carbamoyl)-5,16-dioxo-1,2,3,5,6,7,8,9,10,11,13a,14,14a,15,16,16a-hexadecahydrocyclopropa[e]pyrrolo[1,2-a][1,4]diazacyclopentadecin-6-yl)carbamate] | 0.161 ± 0.013 µM | 0.0009 ± 0.0001 µM | 0.0118 ± 0.0018 µM |
| COc1ccc2nc(C(F)(F)F)c(O[C@@H]3C[C@H]4C(=O)N[C@]5(C(=O)NS(=O)(=O)C6(C)CC6)C[C@H]5/C=C\CCCCC[C@H](NC(=O)O[C@@H](C)C(F)(F)F)C(=O)N4C3)nc2c1 [NR02-32, (S)-1,1,1-Trifluoropropan-2-yl ((2R,6S,13aS,14aR,16aS,Z)-2-((7-methoxy-3-(trifluoromethyl)quinoxalin-2-yl)oxy)-14a-(((1-methylcyclopropyl)sulfonyl)carbamoyl)-5,16-dioxo-1,2,3,5,6,7,8,9,10,11,13a,14,14a,15,16,16a-hexadecahydrocyclopropa[e]pyrrolo[1,2-a][1,4]diazacyclopentadecin-6-yl)carbamate] | 0.58 ± 0.05 µM | 0.00769 ± 0.00089 µM | 0.0446 ± 0.0073 µM |
| COc1ccc2nc(C(F)(F)F)c(O[C@@H]3C[C@H]4C(=O)N[C@]5(C(=O)NS(=O)(=O)C6(C)CC6)C[C@H]5/C=C\CCCCC[C@H](NC(=O)O[C@@H](C)C5CC5)C(=O)N4C3)nc2c1 [NR02-33, (S)-1-Cyclopropylethyl ((2R,6S,13aS,14aR,16aS,Z)-2-((7-methoxy-3-(trifluoromethyl)quinoxalin-2-yl)oxy)-14a-(((1-methylcyclopropyl)sulfonyl)carbamoyl)-5,16-dioxo-1,2,3,5,6,7,8,9,10,11,13a,14,14a,15,16,16a-hexadecahydrocyclopropa[e]pyrrolo[1,2-a][1,4]diazacyclopentadecin-6-yl)carbamate] | 0.412 ± 0.021 µM | 0.0104 ± 0.00094 µM | 0.0544 ± 0.0037 µM |
| COc1ccc2nc(C(F)(F)F)c(O[C@@H]3C[C@H]4C(=O)N[C@]5(C(=O)NS(=O)(=O)C6(C)CC6)C[C@H]5/C=C\CCCCC[C@H](NC(=O)OC5CC5)C(=O)N4C3)nc2c1 [NR02-46, Cyclopropyl ((2R,6S,13aS,14aR,16aS,Z)-2-((7-methoxy-3-(trifluoromethyl)quinoxalin-2-yl)oxy)-14a-(((1-methylcyclopropyl)sulfonyl)carbamoyl)-5,16-dioxo-1,2,3,5,6,7,8,9,10,11,13a,14,14a,15,16,16a-hexadecahydrocyclopropa[e]pyrrolo[1,2-a][1,4]diazacyclopentadecin-6-yl)carbamate] | 0.522 ± 0.025 µM | 0.0136 ± 0.0009 µM | 0.0675 ± 0.0039 µM |
| COc1ccc2nc(C)c(O[C@@H]3C[C@H]4C(=O)N[C@]5(C(=O)NS(=O)(=O)C6(C)CC6)C[C@H]5/C=C\CCCCC[C@H](NC(=O)OCC5(C)CC5(F)F)C(=O)N4C3)nc2c1 (stereo partly drawn) [NR02-55, (2,2-Difluoro-1-methylcyclopropyl)methyl ((2R,6S,13aS,14aR,16aS,Z)-2-((7-methoxy-3-methylquinoxalin-2-yl)oxy)-14a-(((1-methylcyclopropyl)sulfonyl)carbamoyl)-5,16-dioxo-1,2,3,5,6,7,8,9,10,11,13a,14,14a,15,16,16a-hexadecahydrocyclopropa[e]pyrrolo[1,2-a][1,4]diazacyclopentadecin-6-yl)carbamate] | 0.1 ± 0.012 µM | 0.0031 ± 0.0003 µM | 0.0047 ± 0.0005 µM |
| COc1ccc2nc(C(F)(F)F)c(O[C@@H]3C[C@H]4C(=O)N[C@]5(C(=O)NS(=O)(=O)C6(C)CC6)C[C@H]5/C=C\CCCCC[C@H](NC(=O)OCC5(C)CC5(F)F)C(=O)N4C3)nc2c1 (stereo partly drawn) [NR02-56, (2,2-Difluoro-1-methylcyclopropyl)methyl ((2R,6S,13aS,14aR,16aS,Z)-2-((7-methoxy-3-(trifluoromethyl)quinoxalin-2-yl)oxy)-14a-(((1-methylcyclopropyl)sulfonyl)carbamoyl)-5,16-dioxo-1,2,3,5,6,7,8,9,10,11,13a,14,14a,15,16,16a-hexadecahydrocyclopropa[e]pyrrolo[1,2-a][1,4]diazacyclopentadecin-6-yl)carbamate] | 0.336 ± 0.047 µM | 0.0021 ± 0.0005 µM | 0.0071 ± 0.0009 µM |
| COc1ccc2nc(C)c(O[C@@H]3C[C@H]4C(=O)N[C@]5(C(=O)NS(=O)(=O)C6(C)CC6)C[C@H]5/C=C\CCCCC[C@H](NC(=O)OC5(C(F)(F)F)CCC5)C(=O)N4C3)nc2c1 [NR02-58, 1-(Trifluoromethyl)cyclobutyl ((2R,6S,13aS,14aR,16aS,Z)-2-((7-methoxy-3-methylquinoxalin-2-yl)oxy)-14a-(((1-methylcyclopropyl)sulfonyl)carbamoyl)-5,16-dioxo-1,2,3,5,6,7,8,9,10,11,13a,14,14a,15,16,16a-hexadecahydrocyclopropa[e]pyrrolo[1,2-a][1,4]diazacyclopentadecin-6-yl)carbamate] | 0.096 ± 0.017 µM | 0.0015 ± 0.0002 µM | 0.0113 ± 0.002 µM |
| COc1ccc2nc(C(F)(F)F)c(O[C@@H]3C[C@H]4C(=O)N[C@]5(C(=O)NS(=O)(=O)C6(C)CC6)C[C@H]5/C=C\CCCCC[C@H](NC(=O)OC5(C(F)(F)F)CCC5)C(=O)N4C3)nc2c1 [NR02-59, 1-(Trifluoromethyl)cyclobutyl ((2R,6S,13aS,14aR,16aS,Z)-2-((7-methoxy-3-(trifluoromethyl)quinoxalin-2-yl)oxy)-14a-(((1-methylcyclopropyl)sulfonyl)carbamoyl)-5,16-dioxo-1,2,3,5,6,7,8,9,10,11,13a,14,14a,15,16,16a-hexadecahydrocyclopropa[e]pyrrolo[1,2-a][1,4]diazacyclopentadecin-6-yl)carbamate] | 0.133 ± 0.025 µM | 0.002 ± 0.0002 µM | 0.0122 ± 0.0011 µM |
| COc1ccc2nc(C)c(O[C@@H]3C[C@H]4C(=O)N[C@]5(C(=O)NS(=O)(=O)C6(C)CC6)C[C@H]5/C=C\CCCCC[C@H](NC(=O)OC5(C(F)(F)F)CCCC5)C(=O)N4C3)nc2c1 [NR02-60, 1-(Trifluoromethyl)cyclopentyl ((2R,6S,13aS,14aR,16aS,Z)-2-((7-methoxy-3-methylquinoxalin-2-yl)oxy)-14a-(((1-methylcyclopropyl)sulfonyl)carbamoyl)-5,16-dioxo-1,2,3,5,6,7,8,9,10,11,13a,14,14a,15,16,16a-hexadecahydrocyclopropa[e]pyrrolo [1,2-a][1,4]diazacyclopentadecin-6-yl)carbamate] | 0.104 ± 0.007 µM | 0.0013 ± 0.0002 µM | 0.0081 ± 0.0015 µM |
| COc1ccc2nc(C(F)(F)F)c(O[C@@H]3C[C@H]4C(=O)N[C@]5(C(=O)NS(=O)(=O)C6(C)CC6)C[C@H]5/C=C\CCCCC[C@H](NC(=O)OC5(C)CCC5)C(=O)N4C3)nc2c1 [NR02-62, 1-Methylcyclobutyl ((2R,6S,13aS,14aR,16aS,Z)-2-((7-methoxy-3-(trifluoromethyl)quinoxalin-2-yl)oxy)-14a-(((1-methylcyclopropyl)sulfonyl)carbamoyl)-5,16-dioxo-1,2,3,5,6,7,8,9,10,11,13a,14,14a,15,16,16a-hexadecahydrocyclopropa[e]pyrrolo[1,2-a][1,4]diazacyclopentadecin-6-yl)carbamate] | 0.283 ± 0.021 µM | 0.00486 ± 0.00039 µM | 0.0207 ± 0.0007 µM |
